Results reported in article PMC12935919 (Frontiers in Pharmacology, 2026).

Tested on: C2C12 myotubes
Assay: DEX-induced muscle atrophy model, Western blot
Format: cell-based
Conditions: 10 μM DEX 24 h, alone or with 10 or 100 μM Myoki
Protocol: To induce C2C12 myotube differentiation, myoblasts were seeded in 6-well plates at 5 × 10^5 cells per well. Once reaching 90% confluency, they were cultured in DMEM supplemented with 2% horse serum (Thermo Fisher Scientific) and 1% penicillin-streptomycin. […] Differentiation was observed using an optical microscope (LEICA, 100×). Myotube morphology (length and diameter) was quantified in ImageJ (NIH) using the same images: myotube length was measured by tracing the long axis of each myotube (end-to-end), and myotube diameter was measured as the short-axis width at three positions along each myotube; the mean of the three width values was recorded as the diameter. For each experimental group, three randomly captured images (fields) were analyzed, and at least 15–20 myotubes per image were quantified under identical imaging settings.
Treated C2C12 cells (5 × 10^5 cells/well) were harvested in lysis buffer (Sigma-Aldrich, 2910) and centrifuged at 12,000 g for 10 min; proteins in the supernatant were collected. Protein concentrations were measured using the BCA Protein Assay Kit (Thermo Fisher Scientific). Each 20 μg sample was separated using 10% SDS–PAGE and transferred onto a polyvinylidene fluoride membrane (Millipore, Burlington, MA, USA). Non-specific binding was blocked with 5% non-fat dry milk for 1 h. The membranes were incubated overnight with primary antibodies: Anti-Myf5 (Abcam, ab125078), Anti-Myf6 (Abcam, ab182842), Anti-MyoD (Santa Cruz, sc-377460), Anti-MyoG (Santa Cruz, sc-52903), Anti-α-actinin (Santa Cruz, sc-17829), Anti-MYH3 (Santa Cruz, sc-53091), Anti-p-mTOR (Ser2448) (CST, #5536), Anti-p-Akt (Ser473) (CST, #9271), Anti-p-p70 S6 Kinase (Thr389) (CST, #9205), Anti-myostatin (Abcam, ab124721), Anti-atrogin-1/MAFbx (Santa Cruz, sc-166806), and Anti-MuRF1 (Santa Cruz, sc-398608). Membranes were then incubated for 1 h with HRP-conjugated secondary antibodies. Blot images were captured with the ECL system (Amersham, UK) and quantified using ImageJ.

Question: What does the source list for C[C@@H]1C[C@H]2[C@@H]3CCC4=CC(=O)C=C[C@]4(C)[C@@]3(F)[C@@H](O)C[C@]2(C)[C@@]1(O)C(=O)CO [DEX, dexamethasone, reference compound]?
Answer: MuRF1 expression: significant increase; atrogin-1/MAFbx expression: significant increase; expression levels of differentiated muscle fiber structural proteins: significantly reduced; phosphorylation levels of muscle growth signaling proteins (Akt, mTOR, p70S6K): significantly reduced
